# Read-outs that look alike come from different tables or passages of the source. Where a SMILES comes first, the peptide text is derived from it. [ ]: non-standard residue; d: D form.
# Tests used:
# OR51E2 [1] = target: T1, OR51E2 (Homo sapiens, UniProt Q9H255); experiment: cAMP CRE-luciferase reporter assay in Hana3A cells; assay type: cell-based; details: agonist, M10d medium, read-out: EC50 (potency) /
# T1 construct: OR51E2 plasmid transiently transfected into Hana3A cells with CREB-luciferase reporter
# T1 sequence (Q9H255 1-320): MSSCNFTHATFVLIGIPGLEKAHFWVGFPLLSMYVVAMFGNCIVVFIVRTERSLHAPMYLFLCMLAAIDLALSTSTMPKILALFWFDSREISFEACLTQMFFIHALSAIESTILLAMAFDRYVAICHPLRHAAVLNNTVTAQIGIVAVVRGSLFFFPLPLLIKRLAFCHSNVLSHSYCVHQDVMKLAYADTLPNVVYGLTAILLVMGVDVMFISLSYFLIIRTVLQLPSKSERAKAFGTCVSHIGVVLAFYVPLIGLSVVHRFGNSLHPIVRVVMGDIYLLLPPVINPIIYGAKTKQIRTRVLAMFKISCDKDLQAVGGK
# OR51E2 [2] = target: T1, OR51E2; experiment: cAMP CRE-luciferase reporter assay in Hana3A cells; assay type: cell-based; details: agonist, M10d medium, max conc. 10 µM, below the EC50, unreliable
# From the text: cAMP CRE-luciferase reporter assay in Hana3A cells on OR51E2
compound,measurement,setting,value
O=C1CCCN1 [2-Pyrrolidinone],EC50,OR51E2 [1]; max conc. 100 µM,1.9 nM
"C[C@]12CC[C@H]3[C@@H](CCC4=CC(=O)CC[C@@]43CO)[C@@H]1CCC2=O [19-OH AD, 19-hydroxyandrost-4-ene-3,17-dione]",EC50,OR51E2 [1]; max conc. 10 µM,0.15 nM
COc1ccc(NC=O)c(C(=O)CCNC(C)=O)c1 [AFMK],EC50,OR51E2 [1]; max conc. 3.16 mM,12000 nM
C[C@@H](N)C(=O)N[C@H](C)C(=O)O [D-Alanyl-D-alanine] (H-[dA]-[dA]-OH),EC50,OR51E2 [1]; max conc. 3.16 mM,14000 nM
C[C@]12CC[C@@H]3c4ccc(O)cc4CC[C@H]3[C@@H]1C[C@@H](O)[C@@H]2O [Estriol],EC50 (potency) /,OR51E2 [2],53000 nM
O=C(O)C(=O)CO [Hydroxypyruvic acid],EC50,OR51E2 [1]; max conc. 316 µM,420 nM
O=C(O)[C@@H](O)CO [L-Glyceric acid],EC50,OR51E2 [1]; max conc. 1 mM,1.9 nM
CC(=O)N[C@@H](CCC(=O)O)C(=O)O [N-Acetylglutamic acid],EC50,OR51E2 [1]; max conc. 10 µM,0.23 nM
CCCCCCCCCCCCCCCC(=O)O [Palmitic acid],EC50,OR51E2 [1]; max conc. 1 mM,9.8 nM
Oc1ccc(-c2[o+]c3cc(O)cc(O)c3cc2O)cc1 [Pelargonidin],EC50,OR51E2 [1]; max conc. 100 µM,0.42 nM
COc1cc(CCC(=O)CC(=O)CCc2ccc(O)c(OC)c2)ccc1O [Tetrahydrocurcumin],EC50,OR51E2 [1]; max conc. 316 µM,570 nM
NC(N)=O [Urea],EC50,OR51E2 [1]; max conc. 10 mM,23 nM
